The subject of assay [1] is MDA468 breast tumor cells. The experiment in a line: In vitro cell growth assay (MTS), MDA468. It is filed as cell-based, human. The following applies: Homo sapiens, 72 h, three days after drug treatment. A digest of the protocol: (§1)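 Tumor cells plated ~3000/well; inhibitors in DMSO added one day later (final DMSO 0.25%). After three days of treatment, viable cell density read by MTS conversion, absorbance at 490 nm. Effect expressed relative to untreated control growth.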

Assay [2] concerns LNCap prostate tumor cells. The experiment in a line: In vitro cell growth assay (MTS), LNCap. The class given is cell-based, human. To be noted: Homo sapiens, LNCaP, 72 h, three days after drug treatment. A digest of the protocol: as §1
The next assay concerns the target human TOR (FLAG-TOR) (Homo sapiens, UniProt P42345). The experiment in a line: mTOR enzyme assay (DELFIA format, purified enzyme). The class given is biochemical. To be noted: 800 ng/ml FLAG-TOR, 100 μM ATP, 1.25 μM His6-S6K; read-out: mTOR Kinase IC50.
A further assay deals with PI3Kα (Homo sapiens, UniProt P42336). The experiment in a line: PI3Kα fluorescence polarization assay. The class given is biochemical. To be noted: 20 μM PIP2, 25 μM ATP. Put shortly:
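Kinase reaction in 20 mM HEPES pH 7.5, 2 mM MgCl2, 0.05% CHAPS with final 20 μM diC8-PIP2 and 25 μM ATP, 30-60 min at room temperature. Stopped with 10 nM TAMRA-labelled probe plus 2.5 uM GST-murine GRP; fluorescence polarization read after 90-110 minutes.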
A general note: Polarisation of emitted light reports the rotation of a fluorescent probe.

Each structure is given as a SMILES string.

Broadly, the IC50 is the concentration at which inhibition is half-maximal.

Chain of PI3Kα (P42336 whole entry, species assumed): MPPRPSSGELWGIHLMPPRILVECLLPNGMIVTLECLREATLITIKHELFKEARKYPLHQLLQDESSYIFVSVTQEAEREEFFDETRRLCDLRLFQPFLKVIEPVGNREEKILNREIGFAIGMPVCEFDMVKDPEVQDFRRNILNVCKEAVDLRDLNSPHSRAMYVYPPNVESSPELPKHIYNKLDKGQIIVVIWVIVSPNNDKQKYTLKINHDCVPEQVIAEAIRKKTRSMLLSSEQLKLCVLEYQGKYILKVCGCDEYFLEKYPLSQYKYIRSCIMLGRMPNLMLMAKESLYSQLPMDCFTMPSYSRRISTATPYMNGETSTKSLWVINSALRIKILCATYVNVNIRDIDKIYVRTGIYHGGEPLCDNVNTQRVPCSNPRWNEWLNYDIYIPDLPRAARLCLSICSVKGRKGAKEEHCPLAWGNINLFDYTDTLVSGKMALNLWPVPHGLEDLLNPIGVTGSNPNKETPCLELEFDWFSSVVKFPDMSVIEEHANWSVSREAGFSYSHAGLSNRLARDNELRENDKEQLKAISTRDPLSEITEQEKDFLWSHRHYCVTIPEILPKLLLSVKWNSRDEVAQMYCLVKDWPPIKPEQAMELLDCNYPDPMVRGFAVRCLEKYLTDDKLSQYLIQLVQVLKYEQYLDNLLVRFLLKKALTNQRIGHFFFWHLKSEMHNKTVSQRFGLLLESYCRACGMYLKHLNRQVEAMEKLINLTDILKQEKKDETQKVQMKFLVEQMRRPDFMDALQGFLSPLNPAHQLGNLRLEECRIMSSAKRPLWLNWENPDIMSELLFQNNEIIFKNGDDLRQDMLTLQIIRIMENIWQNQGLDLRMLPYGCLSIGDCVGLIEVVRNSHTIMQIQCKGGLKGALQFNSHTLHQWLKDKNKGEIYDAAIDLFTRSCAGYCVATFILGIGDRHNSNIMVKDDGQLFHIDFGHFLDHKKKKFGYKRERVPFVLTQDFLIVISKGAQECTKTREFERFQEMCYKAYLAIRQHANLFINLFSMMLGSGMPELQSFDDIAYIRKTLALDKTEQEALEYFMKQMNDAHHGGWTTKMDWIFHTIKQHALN
Chain of PI3Kα (P27986 whole entry partner, species assumed): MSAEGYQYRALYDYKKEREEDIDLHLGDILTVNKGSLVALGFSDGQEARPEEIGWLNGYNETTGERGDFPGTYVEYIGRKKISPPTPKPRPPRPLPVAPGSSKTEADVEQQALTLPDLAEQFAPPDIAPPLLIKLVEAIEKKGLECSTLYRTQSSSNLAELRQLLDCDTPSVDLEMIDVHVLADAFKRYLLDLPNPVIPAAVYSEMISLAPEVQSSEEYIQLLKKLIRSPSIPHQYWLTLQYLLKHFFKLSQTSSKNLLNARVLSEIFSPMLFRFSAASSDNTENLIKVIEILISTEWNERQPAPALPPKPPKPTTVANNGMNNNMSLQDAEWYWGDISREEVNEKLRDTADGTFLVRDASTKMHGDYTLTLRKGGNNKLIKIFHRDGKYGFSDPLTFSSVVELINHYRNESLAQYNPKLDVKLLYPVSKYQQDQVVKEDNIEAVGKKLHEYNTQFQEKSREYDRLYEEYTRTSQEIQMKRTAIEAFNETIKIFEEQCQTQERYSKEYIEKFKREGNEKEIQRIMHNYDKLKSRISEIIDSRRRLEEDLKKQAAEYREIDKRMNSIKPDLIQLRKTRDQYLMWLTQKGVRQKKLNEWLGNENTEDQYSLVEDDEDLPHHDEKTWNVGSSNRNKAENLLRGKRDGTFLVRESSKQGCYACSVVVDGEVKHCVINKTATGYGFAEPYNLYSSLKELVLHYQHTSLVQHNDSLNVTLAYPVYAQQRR

As for `O=c1cc(Oc2ccccc2)c2ccccc2[nH]1`, the IC50 turned out to be 60 µM in assay [1], 8.88 µM in assay [2], 0.37 µM at human TOR (FLAG-TOR) and 24.1 µM against PI3Kα.
For `CC(=O)N1CCC(C(=O)Nc2ccc3[nH]c(=O)cc(Oc4ccccc4)c3c2)CC1` the same measures were over 60 µM, over 60 µM, over 20 µM and over 10 µM.
For the compound `CC(C)(C)C(=O)Nc1ncccc1CNc1cccc(Oc2cc(=O)[nH]c3ccccc23)c1`, the IC50 in assay [1] amounted to 2.8 µM; in assay [2], 1.3 µM; on human TOR (FLAG-TOR) it was 0.04 µM; against PI3Kα, 4.05 µM.
Consider `CC(C)(C)OC(=O)NC1(CNc2cccc(Oc3cc(=O)[nH]c4ccccc34)c2)CCCC1`, for which the IC50 in assay [1] worked out at 8.5 µM; in assay [2], 4.1 µM; at human TOR (FLAG-TOR), 0.23 µM; on PI3Kα it was 5.13 µM.
In the case of `O=c1cc(Oc2cccc(NCc3ccc(-c4cccnc4)cc3)c2)c2ccccc2[nH]1`, the IC50 came out at 8 µM in assay [1], 3.3 µM in assay [2], 0.09 µM on human TOR (FLAG-TOR) and 7.98 µM against PI3Kα.
Take `O=c1cc(Oc2cccc(NCc3ccc(-c4cccc(CO)n4)cc3)c2)c2ccccc2[nH]1`: the IC50 in assay [1] turned out to be 10 µM; in assay [2] it was 4.3 µM; on human TOR (FLAG-TOR) it was 0.09 µM; against PI3Kα, 3.92 µM.
`O=c1cc(Oc2cccc(NCC3CCN(Cc4ccccc4)CC3)c2)c2ccccc2[nH]1`: the IC50 is 4.1 µM in assay [1], 3 µM in assay [2], 0.18 µM at human TOR (FLAG-TOR) and 9.54 µM against PI3Kα.
With `Nc1nc(Cl)c(CNc2cccc(Oc3cc(=O)[nH]c4ccccc34)c2)c(Cl)n1`, the IC50 in assay [1] was 3.5 µM; in assay [2], 5.2 µM; at human TOR (FLAG-TOR), 0.17 µM; against PI3Kα, over 10 µM.
`O=c1cc(Oc2cccc(NCc3ccc(Oc4ccc(F)cc4)cc3)c2)c2ccccc2[nH]1`: the IC50 in assay [1] was 12 µM; in assay [2], 5.3 µM; at human TOR (FLAG-TOR), 3.5 µM; against PI3Kα it was over 10 µM.
Turning to `Cn1ccc2cc(CNc3cccc(Oc4cc(=O)[nH]c5ccccc45)c3)ccc21`, the IC50 worked out at 1.2 µM in assay [1], 1 µM in assay [2], 0.35 µM on human TOR (FLAG-TOR) and 1.42 µM at PI3Kα.
In the case of `O=c1cc(Oc2ccc(-c3ccc(F)cc3)cc2)c2ccccc2[nH]1`, the IC50 in assay [1] is over 60 µM; in assay [2], over 60 µM; at human TOR (FLAG-TOR), 15.8 µM; against PI3Kα, 9.66 µM.
As to `NC(=O)c1ccc(Oc2cc(=O)[nH]c3ccccc23)cc1`, the IC50 in assay [1] is 23 µM; in assay [2], over 60 µM; at human TOR (FLAG-TOR), 1.83 µM; on PI3Kα, over 10 µM.
`Nc1ccc(-c2ccc3[nH]c(=O)cc(Oc4ccccc4)c3c2)cc1`: the IC50 in assay [1] was 60 µM; in assay [2], 18 µM; on human TOR (FLAG-TOR) it was over 20 µM; against PI3Kα, 6.54 µM.
With `CN1CCN(c2ccc(Oc3cc(=O)[nH]c4ccccc34)cc2)CC1`, the IC50 in assay [1] is 40 µM; in assay [2], 17 µM; at human TOR (FLAG-TOR) it was 7 µM; against PI3Kα, over 10 µM.
Turning to `CN1CCN(c2ccc(-c3cccc(Oc4cc(=O)[nH]c5ccccc45)c3)cn2)CC1`, the IC50 in assay [1] is 9 µM; in assay [2], 4 µM; on human TOR (FLAG-TOR), 0.21 µM; against PI3Kα, over 10 µM.
As for `O=c1cc(Oc2ccc(C3N=CCN3)cc2)c2ccccc2[nH]1` (centres unmarked), the IC50 is 60 µM in assay [1], 45 µM in assay [2], 0.78 µM at human TOR (FLAG-TOR) and over 10 µM against PI3Kα.
Consider `O=c1cc(Oc2ccc(C3=NCCCN3)cc2)c2ccccc2[nH]1`, for which the IC50 was 60 µM in assay [1], over 60 µM in assay [2], 0.57 µM at human TOR (FLAG-TOR) and over 10 µM at PI3Kα.
Consider `Nc1ccc(-c2cccc(Oc3cc(=O)[nH]c4ccccc34)c2)cn1`, for which the IC50 is 1.95 µM in assay [1], 23 µM in assay [2], 0.09 µM on human TOR (FLAG-TOR) and 9 µM at PI3Kα.
On to `O=c1cc(Oc2cccc(-c3ccc(NCCN4CCOCC4)nc3)c2)c2ccccc2[nH]1`, for which the IC50 was determined as 2 µM in assay [1], 4.7 µM in assay [2], 0.15 µM on human TOR (FLAG-TOR) and 6.79 µM on PI3Kα.
As for `CCN1CCCC(Nc2ccc(-c3cccc(Oc4cc(=O)[nH]c5ccccc45)c3)cc2)C1` (centres unmarked), the IC50 in assay [1] worked out at 10 µM; in assay [2], 3.9 µM; on human TOR (FLAG-TOR), 0.31 µM; at PI3Kα it was 8 µM.
For `O=c1cc(Oc2cccc(-c3ccc(NC4CCNCC4)cc3)c2)c2ccccc2[nH]1` the same measures were 3.8 µM, 2.3 µM, 0.09 µM and over 10 µM.
Regarding `O=c1cc(Oc2cccc(-c3ccc(Cl)nc3)c2)c2ccccc2[nH]1`, the IC50 is over 60 µM in assay [1], over 60 µM in assay [2], over 20 µM on human TOR (FLAG-TOR) and over 10 µM on PI3Kα.
Take `O=c1cc(Oc2cccc(NCc3cnc4ccccc4c3)c2)c2ccccc2[nH]1`: the IC50 was 60 µM in assay [1], over 60 µM in assay [2], 0.06 µM at human TOR (FLAG-TOR) and over 10 µM at PI3Kα.
As to `CC(C)(C)OC(=O)n1ccc2cc(CNc3cccc(Oc4cc(=O)[nH]c5ccccc45)c3)cnc21`, the IC50 in assay [1] amounted to 60 µM; in assay [2] it was 11.5 µM; on human TOR (FLAG-TOR), 4.5 µM; against PI3Kα, 11.8 µM.
For `O=c1cc(Oc2cccc(NCc3cnc4[nH]ccc4c3)c2)c2ccccc2[nH]1`, the IC50 is 13 µM in assay [1], 4.9 µM in assay [2], 0.12 µM on human TOR (FLAG-TOR) and 3.42 µM against PI3Kα.
For `CN(C)c1ncccc1CNc1cccc(Oc2cc(=O)[nH]c3ccccc23)c1`, the IC50 in assay [1] was 12 µM; in assay [2] it was 5 µM; at human TOR (FLAG-TOR), 0.31 µM; against PI3Kα it was over 10 µM.
With `CN(C)c1ccc(CNc2cccc(Oc3cc(=O)[nH]c4ccccc34)c2)cn1`, the IC50 in assay [1] is over 60 µM; in assay [2] it was over 60 µM; at human TOR (FLAG-TOR), 0.16 µM; against PI3Kα it was 4.55 µM.
For the compound `Nc1ccc(CNc2cccc(Oc3cc(=O)[nH]c4ccccc34)c2)cn1`, the IC50 in assay [1] turned out to be 8 µM; in assay [2], 4 µM; at human TOR (FLAG-TOR), 0.11 µM; against PI3Kα, 7.16 µM.
For `N#C[BH2-][n+]1cccc(CNc2cccc(Oc3cc(=O)[nH]c4ccccc34)c2)c1` the same measures were 4.2 µM, 2.3 µM, 0.03 µM and 7.38 µM.
Take `CC(C)(C)CNc1ccc(CNc2cccc(Oc3cc(=O)[nH]c4ccccc34)c2)cn1`: the IC50 was found to be 12 µM in assay [1], 7 µM in assay [2], 0.35 µM on human TOR (FLAG-TOR) and 2.09 µM against PI3Kα.
In the case of `CNc1ncccc1CNc1cccc(Oc2cc(=O)[nH]c3ccccc23)c1`, the IC50 in assay [1] was 6.8 µM; in assay [2] it was 2.8 µM; at human TOR (FLAG-TOR), 0.09 µM; on PI3Kα, over 10 µM.
Regarding `Nc1ccncc1CNc1cccc(Oc2cc(=O)[nH]c3ccccc23)c1`, the IC50 was 11.5 µM in assay [1], 8 µM in assay [2], 0.15 µM on human TOR (FLAG-TOR) and over 10 µM against PI3Kα.

Source of the values: patent publication US20100068204A1, “4-ARYLOXYQUINOLIN-2(1H)-ONES AS MTOR KINASE AND PI3 KINASE INHIBITORS, FOR USE AS ANTI-CANCER AGENTS” (Wyeth, priority 2008, published 2010).
